Source: patent US20240094197A1, “Method for removing protein corona of the surface of nanometer particle” (ZHEJIANG UNIVERSITY, priority 2022, published 2024)
Where two headings read alike, the source gives them in different places.

Assays:
[1] = test system: BxPC3 cells; assay: Endocytic pathway in tumor cells (endocytosis inhibitors); assay type: cell-based, human; settings: chlorpromazine 50 μM, genistein 200 μM, wortmannin 5 μM, cytochalasin D 5 μM; for inhibition at 5 µM / inhibition at 200 µM / inhibition at 50 µM: Homo sapiens; for inhibition rate on the endocytosis of LPGL in BxPC3 cells: serum-containing medium
Procedure: BxPC3 cells (1×10^5 cells/mL, 1 mL) were cultured in 12-well plates for 24 h, and the culture medium was then replaced with 1 mL fresh serum-free medium. Chlorpromazine (50 μM, clathrin-mediated endocytosis inhibitor), genistein (200 μM, caveolae-mediated endocytosis inhibitor), wortmannin (5 μM, phosphatidylinositol 3-kinases-mediated macropinocytosis inhibitor), or cytochalasin D (5 μM, actin-polymerization inhibitor) was added to the medium for 2 h of incubation. Another group of BxPC3 cells without any endocytosis inhibitor treatment was cultured for 2 h as the control group. Next, the mixture of Cy5-labeled LPGL liposome (equivalent to fluorescent lipids of 60 μg/mL, 20 μL) and serum-containing medium or serum-free medium was respectively added into the plate, and subsequently treated with or without ultrasound stimulation (acoustic intensity: 2 W/cm^2, frequency: 3 MHz, duty cycle: 50%, duration time: 5 min). After incubation of 3 h, cells were washed, digested and collected into a centrifugal tube, and the mean fluorescence intensity was detected by flow cytometry.

[2] = test system: three-dimensional (3D) multicellular tumor spheroids of BxPC3; assay: Cytotoxicity on 3D multicellular tumor spheroids (Alamar Blue); assay type: cell-based, human; settings: serum-containing medium, ultrasound stimulation, 72 h, equivalent to GEM 0~10 μM
Procedure: (§1) The cytotoxicity of the liposome was tested on the three-dimensional (3D) multicellular tumor spheroids of BxPC3 or Huh7. The tumor spheroids were established using the hanging drop method. The mixture of LPGL, PGL, LGL, GL or free gemcitabine (GEM) and serum-containing medium were respectively added into the wells containing three-dimensional (3D) multicellular tumor spheroids of BxPC3 or Huh7 at the final testing concentrations (equivalent to GEM: 0˜10 μM), and treated with ultrasound stimulation (acoustic intensity: 2 W/cm^2, frequency: 3 MHz, duty cycle: 50%, duration time: 5 min), then incubated for 72 h. Meanwhile, the LPL liposome with equimolar ratio to LPGL liposome was tested as a control. Afterward, the culture medium was replaced with a mixture of 90 μL fresh culture medium and 10 μL Alamar Blue Cell Viability Reagent, and was continuously incubated for 12 h. The sample plates were then detected using a plate reader at 530 nm excitation and 590 nm emission to obtain fluorescence intensity readouts. In addition, apoptosis induced by the liposome in spheroids were further determined by the TdT-mediated dUTP nick end labeling (TUNEL) assay, and the positive TUNEL-staining cells were examined by CLSM.

[3] = test system: three-dimensional (3D) multicellular tumor spheroids of Huh7; assay: as above; assay type: cell-based, human; settings: serum-containing medium, ultrasound stimulation, 72 h, equivalent to GEM 0~10 μM
Procedure: as §1

[4] = test system: 3D multicellular tumor spheroids of BxPC3; assay: Morphology and apoptosis of tumor spheroids (light microscope, TUNEL staining); assay type: cell-based, human; settings: equivalent to GEM 0.1 μM, serum-containing medium, ultrasound stimulation, 72 h
Procedure: The method for inhibiting 3D multicellular tumor spheroids of BxPC3 with free GEM and different liposomes is as follows: the mixture of LPGL, PGL, LGL, GL liposome, free gemcitabine (GEM) or PBS and serum-containing medium was incubated with 3D multicellular tumor spheroids of BxPC3 at the final testing concentrations (equivalent to GEM: 0.1 μM), and treated with ultrasound stimulation (acoustic intensity: 2 W/cm^2, frequency: 3 MHz, duty cycle: 50%, duration time: 5 min), then incubated for 72 h, the morphology of 3D multicellular tumor spheroids of BxPC3 in different treatment group was observed using light microscope and TUNEL staining, scale bar=500 μm. […] (10E) The mean integrated optical density (IOD) of fluorescence in two inner layers of 75 μm and 100 μm (as shown in FIG. 10 D) in 3D multicellular tumor spheroids of BxPC3 was analyzed using Image-pro Plus 6.0 software to evaluate the penetration ability of liposome.
The cytotoxicity of the liposome was tested on the three-dimensional (3D) multicellular tumor spheroids of BxPC3 or Huh7. […] The sample plates were then detected using a plate reader at 530 nm excitation and 590 nm emission to obtain fluorescence intensity readouts. In addition, apoptosis induced by the liposome in spheroids were further determined by the TdT-mediated dUTP nick end labeling (TUNEL) assay, and the positive TUNEL-staining cells were examined by CLSM.

[5] = test system: human-derived tumor xenograft of PDA; assay: In vivo antitumor activity (PDA model); parameters: species or system BALB/c nude mice
Procedure: BALB/c nude mice bearing human-derived tumor xenograft of PDA in the subcutaneous region were selected and grouped into seven groups (n=6). Each group was intravenously injected with LPGL liposome dispersion (dose equivalent to GEM 10 mg/kg), PGL liposome dispersion (dose equivalent to GEM 10 mg/kg), LGL liposome dispersion (dose equivalent to GEM 10 mg/kg), GL liposome dispersion (dose equivalent to GEM 10 mg/kg), GEM PBS7.4 dispersion (dose equivalent to GEM 10 mg/kg), LPL liposome dispersion or PBS 7.4 buffer respectively every two days for a total of four times. The 16th day was the first time of intravenous injection administration. The tumor site of each group was treated with ultrasound stimulation (acoustic intensity: 2 W/cm^2, frequency: 3 MHz, duty cycle: 50%, duration time: 20 min) after post-injection. The width and length of the tumors and the bodyweight of mice were measured during the treatment. At the end of the experiment at 36 days, the blood was collected, then mice were euthanized, tumors were dissected and weighed. The therapeutic efficacy was evaluated by comparing tumor size in the experimental group and control group. The tumor inhibition rate=100%×(mean tumor weight of PBS group−mean tumor weight of experimental group)/mean tumor weight of PBS group. The dissected tumors were fixed with 4% neutral buffered paraformaldehyde and embedded in paraffin. Tissue sections of 5-μm thick were mounted onto glass slides and stained with hematoxylin-eosin (H&E), and then examined by light microscopy. The immunohistochemistry staining of Ki67 was tested to investigate the percentage of proliferous tumor cells positively stained in the examined field. Tissue sections were subjected to Ki67 staining using the Ki67-antibody Assay Kit according to the manufacturer's protocol. Apoptotic cells were also identified using TUNEL Apoptosis Assay Kit and examined using CLSM

[6] = test system: human-derived tumor xenograft of HCC; assay: In vivo antitumor activity and toxicity (HCC model); parameters: species or system BALB/c nude mice
Procedure: The study of liposome and its characteristics and anti-tumor activity in Example 2 was the same as that in Example 1. The difference was that LPGL liposome and LGL liposome were prepared by replacing DSPE-PEG2000-RGD with DSPE-PEG2000-NGR. The DSPE-PEG2000-NGR refers to 1,2-distearoyl-sn-glycero-3-phosphoethanolamine-N-[methoxy (polyethylene glycol)-2000]-NGR targeting peptide, the amino acid sequence of NGR targeting peptide was Gly (glycine)-Gly (glycine)-Cys (cysteine)-Asn (asparagine)-Gly (glycine)-Arg (arginine)-Cys (cysteine) with the amino acid sequence GGCNGRC (SEQ ID NO: 2).
BALB/c nude mice bearing human-derived tumor xenograft of hepatocellular carcinoma (HCC) in the subcutaneous region were selected and grouped into six groups (n=9, wherein three mice of each group were selected to measure the accumulation content of gemcitabine triphosphate active metabolite (dFdCTP) in the tumor after 24 h of first intravenous injection). Same to the PDA model in the Example 1, after BALB/c nude mice subcutaneously bearing human-derived tumor xenograft of HCC were injected with free GEM PBS 7.4 buffer, GL liposome, NGR modified LGL liposome, PGL liposome, NGR modified LPGL liposome or PBS 7.4, the tumor site was treated with ultrasound stimulation (+US, acoustic intensity: 2 W/cm^2, frequency: 3 MHz, duty cycle: 50%, duration time: 20 min). At 24 h after firstly intravenous injection, the accumulation content of gemcitabine triphosphate active metabolite (dFdCTP) in the tumor was shown in FIG. 17B. As GEM could quickly be phosphorylated into its active metabolite of GEM triphosphate (dFdCTP) in tumor, so the dFdCTP was widely used as a quantitative index of GEM.
The tumor size and the bodyweight of mice in each group was shown in FIG. 17C, FIG. 17D, FIG. 17E and FIG. 17F. […] At the end of the 34-day experiment, the mice serum was sampled, and the content of alanine aminotransferase (ALT), aspartate aminotransferase (AST), creatinine (CRE) and blood urea nitrogen (BUN) in the serum was detected to evaluate the in vivo hepatic and renal toxicity (as shown in Table 4).

[7] = test system: BxPC3 cells; assay: Transcytosis transport in tumor cells; assay type: cell-based, human; settings: BxPC3 cells pretreated with EXO1 20 μM; serum-containing medium, with ultrasound stimulation
Procedure: BxPC3 cells (1×10^5 cells/mL, 1 mL) were cultured in a confocal dish for 24 h, and the culture medium was then replaced with 1 mL fresh serum-free medium. Next, the mixture of Cy5-labeled GL, LGL, PGL or LPGL liposome (equivalent to fluorescent lipids of 60 μg/mL, 20 μL) and serum-containing medium or serum-free medium was respectively added into the confocal dish, and subsequently treated with or without ultrasound stimulation (acoustic intensity: 2 W/cm^2, frequency: 3 MHz, duty cycle: 50%, duration time: 5 min). After incubation of 3 h, the dishes were washed twice with PBS. A total of 1×10^5 fresh cells in 1 mL of fresh serum-free medium was added to the dishes. The mixed cells were continuously incubated for 0 min, 30 min, and 120 min. The transcellular transport of liposome from previously added cells to newly added cells was photographed at incubation time of 0 min, 30 min, and 120 min with a CLSM using 640 nm excitation wavelength. Then the newly added cells at 120 min of incubation were washed away and collected into a centrifugal tube, and detected using flow cytometry. Meanwhile, BxPC3 cells pretreated with an exocytosis inhibitor EXO1 (20 μM) were tested using the same method to investigate the inhibition of transcellular transport.

[8] = test system: 3D multicellular tumor spheroids of BxPC3; assay: Penetration in tumor spheroids (CLSM); assay type: cell-based, human; settings: EXO1 20 μM pretreatment
Procedure: The 3D multicellular tumor spheroids of BxPC3 pretreated with or without exocytosis inhibitor EXO1 (20 μM) were transferred to a confocal dish containing fresh serum-free medium. The mixture of Cy5-labeled LPGL, PGL, LGL or GL liposome (equivalent to fluorescent lipids of 60 μg/mL, 30 μL) and fresh serum-containing medium were added, and treated with ultrasound stimulation (acoustic intensity: 2 W/cm^2, frequency: 3 MHz, duty cycle: 50%, duration time: 5 min), then incubated for 6 h. After washing with PBS, images were obtained with CLSM in XYZ-3D-stack at 25-μm intervals from apex to equator.

[9] = BXPC-3, serum-containing medium, with ultrasound stimulation, read-out: inhibition rate on the endocytosis of LPGL in BxPC3 cells
[10] = BXPC-3, serum-containing medium, without ultrasound stimulation, read-out: inhibition rate on the endocytosis of LPGL in BxPC3 cells
[11] = BXPC-3, serum-free medium, without ultrasound stimulation, read-out: inhibition rate on the endocytosis of LPGL liposome in BxPC3 cells
[12] = mice serum, end of the 34-day experiment, LGL and LPGL are NGR modified

## COC[C@H]1OC(=O)c2coc3c2[C@@]1(C)C1=C(C3=O)[C@@H]2CCC(=O)[C@@]2(C)C[C@H]1OC(C)=O [wortmannin]
[1]; BXPC-3, read-out: inhibition rate on the endocytosis of LPGL in BxPC3 cells, serum-containing medium, with ultrasound stimulation
  inhibition at 5 µM: 24.8%
[1]; BXPC-3, read-out: inhibition rate on the endocytosis of LPGL in BxPC3 cells, serum-containing medium, without ultrasound stimulation
  inhibition at 5 µM: 23.5%
[1]; BXPC-3, read-out: inhibition rate on the endocytosis of LPGL liposome in BxPC3 cells, serum-free medium, without ultrasound stimulation
  inhibition at 5 µM: 13.4%

## O=c1c(-c2ccc(O)cc2)coc2cc(O)cc(O)c12 [genistein]
[1]; [9]
  inhibition at 200 µM: 52.5%
[1]; [10]
  inhibition at 200 µM: 28.9%
[1]; [11]
  inhibition at 200 µM: 57.6%

## CN(C)CCCN1c2ccccc2Sc2ccc(Cl)cc21 [chlorpromazine]
[1]; [9]
  inhibition at 50 µM: 24.4%
[1]; [10]
  inhibition at 50 µM: 35.9%
[1]; [11]
  inhibition at 50 µM: 21.1%

## Nc1ccn([C@@H]2O[C@H](CO)[C@@H](O)C2(F)F)c(=O)n1 [GEM, gemcitabine]
[2]
  cytotoxicity against 3D multicellular tumor spheroids of BxPC3: dose-dependent cytotoxicity
[3]
  cytotoxicity against 3D multicellular tumor spheroids of Huh7: dose-dependent cytotoxicity
[4]
  apoptotic cells in BxPC3 spheroids (TUNEL staining): few apoptotic cells distributed around the spheroid's periphery
  morphology of BxPC3 spheroids (light microscope): no significant change in morphology
[5]; during treatment / end of the 36-day experiment
  side effects: body weight, white blood cell (WBC) and blood platelet: distinct body weight loss, and hematological damage on sharp decrease of white blood cell (WBC) and blood platelet
[5]; end of the 36-day experiment
  H&E staining of excised tumors, vs LPL liposome and PBS: much less densely populated cells
  distribution of apoptotic cells in tumor (TUNEL assay): merely existed around the tumor periphery
[5]; i.v. every two days, four times, dose equivalent to GEM 10 mg/kg, ultrasound on tumor 20 min
  change of tumor volume: firstly delayed, but then recovered to grow when stopping administration
[6]; during treatment
  bodyweight of mice: gradually decreased
[6]; mice serum, end of the 34-day experiment
  content of AST, ALT, BUN and CRE relative to normal range: beyond the maximum of normal limit
[6]; [12]
  ALT: 81.1 ± 10.5 U/L
  AST: 218.6 ± 25.3 U/L
  BUN: 47.6 ± 5.0 mg/dL
  CRE: 0.68 ± 0.17 mg/dL

## C=C1[C@@H](C)[C@H]2[C@H](Cc3ccccc3)NC(=O)[C@]23[C@H](OC(C)=O)/C=C/[C@@](C)(O)C(=O)[C@@H](C)C/C=C/[C@H]3[C@@H]1O [cytochalasin D]
[1]; with ultrasound stimulation
  inhibition rate on the endocytosis of LPGL in BxPC3 cells: 17.0%
[1]; without ultrasound stimulation
  inhibition rate on the endocytosis of LPGL in BxPC3 cells: 10.2%
[1]; serum-free medium, without ultrasound stimulation
  inhibition rate on the endocytosis of LPGL liposome in BxPC3 cells: 19.9%

## COC(=O)c1ccccc1NC(=O)c1ccc(F)cc1 [EXO1]
[7]
  effect on transcytosis transport of LPGL liposome: could be inhibited
[8]
  effect on permeability of LPGL liposome into the 3D spheroid of BxPC3: could significantly inhibit the permeability of LPGL liposome
